This test deals with Influenza A virus. The test can be described thus: Antiviral activity against Influenza virus A/WSN/33 expressing M2 S31N mutant channel infected in MDCK cells by plaque reduction assay. The format is functional, organism-based.

Drawing on ChEMBL document CHEMBL6121032, “Mining Druggable Sites in Influenza A Hemagglutinin: Binding of the Pinanamine-Based Inhibitor M090” (ACS Med Chem Lett, 2025), this text covers EC50 for one molecule.

By EC50 is commonly meant the midpoint of the concentration-response curve. The low end stands for greater potency, the high end for weaker potency. `Brc1ccc(CNC23CC4CC(CC(C4)C2)C3)s1` showed an EC50 of 1800 µM.
